In patent US8084465B2, “Derivatives of pryidone and use thereof” (Shanghai Genomics, Inc., priority 2003, dated 2011):

Legend:
fibroblast = assay: MTT assay, proliferation of fibroblast cultured in vitro; assay type: cell-based
Procedure: The inhibitory effect of F351 on the proliferation of fibroblast cultured in vitro was tested using the following method. F351 was dissolved in 0.5% DMSO. The fibroblast was treated with F351 of different amount (FIG. 1 and FIG. 2) for 5 days. The agent was refreshed once every 48 hrs. Pirfenidone was used in parallel experiments in order to compare the effects of these two agents.
MTT assay: […] cell suspension was added into each well of a 96-well plate, 4 parallel wells per group. The concentration of the agent and the culture time remained unchanged. Then 10 μL 5 g/L MTT (3-(4,5-dimethylthiazol-2-yl)-2,5-diphenyltetrazolium bromide) was added to each well for another 4 hrs of culture. 100 uL DMSO was added to each well. Gently vortex to make a uniform mixture. After about 10 mins, OD values at 570 nm and 630 nm were measured by an enzyme linked immune detector (BIO RAD 550). The cell viability rate was calculated in accordance with the following formula: Viability rate=[(experimental well OD570−experimental well OD630)/(control well OD570−control well OD630)]×100% Inhibition rate (or proliferation rate)=100%−viability rate

[1] = test system: rat liver fibrosis model induced by DMN (dimethyl nitrosamine); assay: Rat liver fibrosis model induced by DMN, liver pathology; assay type: in vivo
Procedure: (§1) A rat liver fibrosis model was established by induction with CCl4 and DMN (dimethyl nitrosamine)) respectively, and treated with F351 for 4 weeks, 8 weeks. The livers of the animal were harvested to observe the pathologic results. The method was as follows:
(§2) (a) Generating a carbon tetrachloride model (injected intraperitoneally with 40% CCl4 mixed with oil, 0.4 ml/100 g, twice per week, for 4 continuous weeks) and a dimethyl nitrosamine liver fibrosis model (injected intraperitoneally with 1% DMN, 10 mg/Kg, twice per week, for 8 continuous weeks).
(§3) (b) The animals of these two models were intragastrically administered with F351 from the 0 day of the model establishment, with the dose at 250 mg/Kg, once per day, for 4 or 8 continuous weeks.

[2] = test system: rat liver fibrosis model induced by CCl4; assay: Rat liver fibrosis model induced by CCl4, liver pathology; assay type: in vivo; details: 4 weeks, 250 mg/Kg intragastrically once per day, model group S4-S6, P=0.001
Procedure: as §1, §2, §3

[3] = test system: liver fibrosis model induced by DMN; assay: Mortality of rats in the DMN liver fibrosis model; assay type: in vivo, rat
Procedure: as §2, §3
(§4) The rat liver fibrosis models established by induction with CCl4 and DMN were treated with F351 in the same manner in Example 3. The body weight and mortality of the rates were observed.

[4] = test system: liver fibrosis model induced by CCl4; assay: Mortality of rats in the CCl4 liver fibrosis model; assay type: in vivo; details: 250 mg/Kg once per day
Procedure: as §2, §3, §4

[5] = test system: rat with liver fibrosis induced by DMN; assay: Serum transaminase (ALT) level in the DMN liver fibrosis model; assay type: in vivo; details: DMN model + F351, week 4; DMN model group 74±18.25, control group 27±5.09; P<0.05
Procedure: as §2, §3
(§5) The rat liver fibrosis models established by induction with CCl4 and DMN were treated with F351 in the same manner in Example 3. The serum of the rats was extracted and the level of the serum transaminase was measured.

[6] = test system: rat with liver fibrosis induced by CCl4; assay: Serum transaminase (ALT) level in the CCl4 liver fibrosis model; assay type: in vivo; details: CCl4 model + F351, week 4; CCl4 model group 52±17.15, control group 27±5.09; P<0.05
Procedure: as §2, §3, §5

## Cc1ccc(=O)n(-c2ccc(O)cc2)c1 [F351, 5-methyl-1-(4-hydroxylphenyl)-2-(1H)-pyridone]
fibroblast; FIG. 2, versus Pirfenidone control
  activity for inhibiting the fibroblast viability: higher than that of the Pirfenidone control
fibroblast; MTT assay, treated for 5 days, compared with Pirfenidone in parallel, FIG. 1 and FIG. 2
  inhibitory effect on the fibroblast: more significant than that of Pirfenidone
[1]; week 4, 250 mg/Kg intragastrically once per day, versus model group, P<0.001
  liver lesion (hepatocyte necrosis, hemorrhage, collagen deposition, fibrosis): significantly reduced
[1]; week 8, 250 mg/Kg intragastrically once per day, versus control group
  fibrosis around the sinus (pathologic results): obviously better than the control group
[2]
  pathologic changes (fibrosis dimension around the central veins and the sinus): obviously reduced
[3]; week 4, 250 mg/Kg once per day, control group 7 of 25 rats survived
  rats survived: 24
[3]; week 8, 250 mg/Kg once per day, control group 2 of 25 rats survived
  rats survived: 18
[4]
  mortality of the rats: did not increase the mortality
[5]
  ALT serum level: 54±17.25
[6]
  ALT serum level: 45±17.68
